Data as given in the NIST ThermoML archive (doi:10.1021/acs.jced.5b00242).

Key:
[1] = xn = mol fraction of the nth substance listed; conditions: 101 kPa, Liquid; for mass density: Vibrating tube method
[2] = refractive index (Na D-line) (dimensionless); xn = mol fraction of the nth substance listed; conditions: 101 kPa, Liquid, Standard Abbe refractometry

CCn1cc[n+](C)c1.NCC(=O)[O-] [1-ethyl-3-methylimidazolium ammonioacetate] + CCn1cc[n+](C)c1.N#C[C-](C#N)C#N
viscosity [mPa·s], [1], Stabinger viscometer
Conditions | x2 = 0 | x2 = 0.2498 | x2 = 0.5001 | x2 = 0.7501
293.15 K | 240.18 | 94.03 | 53.98 | 29.05
298.15 K | 171.97 | 70.85 | 42.14 | 23.45
303.15 K | 126.19 | 54.7 | 33.55 | 19.43
308.15 K | 95.04 | 43.19 | 27.19 | 16.35
313.15 K | 73.5 | 34.81 | 22.25 | 13.9
318.15 K | 57.66 | 28.43 | 18.69 | 12.02
323.15 K | 46.21 | 23.59 | 15.89 | 10.47
328.15 K | 37.66 | 19.87 | 13.84 | 9.21
333.15 K | 31.24 | 16.92 | 11.88 | 8.12
338.15 K | 26.08 | 14.58 | 10.47 | 7.29
343.15 K | 22.11 | 12.67 | 9.233 | 6.55
348.15 K | 18.95 | 11.1 | 8.191 | 5.92
353.15 K | 16.45 | 9.77 | 7.189 | 5.35

Conditions | mass density, x2 = 0 [kg/m3] | mass density, x2 = 0.2498 [kg/m3] | mass density, x2 = 0.5001 [kg/m3] | mass density, x2 = 0.7501 [kg/m3] | refractive index, x2 = 0 | refractive index, x2 = 0.2498 | refractive index, x2 = 0.5001 | refractive index, x2 = 0.7501
[1], 293.15 K | 1164.3 | 1140.2 | 1118.4 | 1101.2 | – | – | – | –
[1], 298.15 K | 1161.2 | 1136.9 | 1115 | 1097.8 | – | – | – | –
[1], 303.15 K | 1158.1 | 1133.7 | 1111.7 | 1094.4 | – | – | – | –
[1], 308.15 K | 1155 | 1130.5 | 1108.4 | 1091 | – | – | – | –
[1], 313.15 K | 1152 | 1127.3 | 1105.2 | 1087.7 | – | – | – | –
[1], 318.15 K | 1149 | 1124.3 | 1102.1 | 1084.4 | – | – | – | –
[1], 323.15 K | 1146 | 1121.1 | 1098.9 | 1081 | – | – | – | –
[1], 328.15 K | 1143 | 1118 | 1095.7 | 1077.7 | – | – | – | –
[1], 333.15 K | 1139.9 | 1114.8 | 1092.5 | 1074.5 | – | – | – | –
[1], 338.15 K | 1136.9 | 1111.7 | 1089.3 | 1071.2 | – | – | – | –
[1], 343.15 K | 1133.8 | 1108.6 | 1086.1 | 1068 | – | – | – | –
[1], 348.15 K | 1130.7 | 1105.5 | 1082.9 | 1064.7 | – | – | – | –
[1], 353.15 K | 1127.4 | 1102.4 | 1079.7 | 1061.5 | – | – | – | –
[2], 293.15 K | – | – | – | – | 1.52134 | 1.52032 | 1.51815 | 1.51562
[2], 298.15 K | – | – | – | – | 1.51997 | 1.51892 | 1.51656 | 1.51399
[2], 303.15 K | – | – | – | – | 1.5186 | 1.51743 | 1.51505 | 1.51238
[2], 308.15 K | – | – | – | – | 1.51724 | 1.51596 | 1.51355 | 1.5108
[2], 313.15 K | – | – | – | – | 1.51585 | 1.51457 | 1.51205 | 1.50922
[2], 318.15 K | – | – | – | – | 1.5145 | 1.51315 | 1.51057 | 1.50764
[2], 323.15 K | – | – | – | – | 1.51313 | 1.51173 | 1.50908 | 1.50609
[2], 328.15 K | – | – | – | – | 1.51179 | 1.51031 | 1.5076 | 1.50449
[2], 333.15 K | – | – | – | – | 1.51041 | 1.5089 | 1.50613 | 1.50295
[2], 338.15 K | – | – | – | – | 1.50904 | 1.50751 | 1.50462 | 1.50143
[2], 343.15 K | – | – | – | – | 1.50769 | 1.50614 | 1.50315 | 1.49987
[2], 348.15 K | – | – | – | – | 1.50637 | 1.50472 | 1.5017 | 1.49834
[2], 353.15 K | – | – | – | – | 1.50495 | 1.50334 | 1.50021 | 1.49682

CCn1cc[n+](C)c1.NCCS(=O)(=O)[O-] [1-ethyl-3-methylimidazolium taurinate] + CCn1cc[n+](C)c1.N#C[C-](C#N)C#N
viscosity [mPa·s], [1], Stabinger Viscometer
Conditions | x2 = 0 | x2 = 0.2503 | x2 = 0.5001 | x2 = 0.7496
293.15 K | 760.89 | 250.33 | 84.5 | 35.42
298.15 K | 514.67 | 180.68 | 64.77 | 28.77
303.15 K | 359.36 | 133.6 | 50.77 | 23.71
308.15 K | 258.04 | 101.33 | 40.59 | 19.84
313.15 K | 190.44 | 78.59 | 33.04 | 16.61
318.15 K | 143.31 | 61.69 | 27.27 | 14.44
323.15 K | 110.35 | 49.65 | 22.83 | 12.51
328.15 K | 86.59 | 40.56 | 19.37 | 10.94
333.15 K | 69.36 | 33.69 | 16.6 | 9.52
338.15 K | 56.05 | 28.15 | 14.4 | 8.62
343.15 K | 46.1 | 23.86 | 12.59 | 7.72
348.15 K | 38.4 | 20.46 | 11.1 | 6.96
353.15 K | 32.53 | 17.79 | 9.83 | 6.19

Conditions | mass density, x2 = 0 [kg/m3] | mass density, x2 = 0.2503 [kg/m3] | mass density, x2 = 0.5001 [kg/m3] | mass density, x2 = 0.7496 [kg/m3] | refractive index, x2 = 0 | refractive index, x2 = 0.2503 | refractive index, x2 = 0.5001 | refractive index, x2 = 0.7496
[1], 293.15 K | 1255 | 1207.7 | 1164.8 | 1124.1 | – | – | – | –
[1], 298.15 K | 1251.5 | 1204.4 | 1161.4 | 1120.6 | – | – | – | –
[1], 303.15 K | 1248.1 | 1201.1 | 1158 | 1117.2 | – | – | – | –
[1], 308.15 K | 1244.8 | 1197.9 | 1154.7 | 1113.8 | – | – | – | –
[1], 313.15 K | 1241.6 | 1194.7 | 1151.4 | 1110.4 | – | – | – | –
[1], 318.15 K | 1238.6 | 1191.7 | 1148.2 | 1107.2 | – | – | – | –
[1], 323.15 K | 1235.5 | 1188.5 | 1145 | 1103.8 | – | – | – | –
[1], 328.15 K | 1232.4 | 1185.3 | 1141.7 | 1100.5 | – | – | – | –
[1], 333.15 K | 1229.2 | 1182.1 | 1138.4 | 1097.2 | – | – | – | –
[1], 338.15 K | 1226.1 | 1179 | 1135.2 | 1093.9 | – | – | – | –
[1], 343.15 K | 1223 | 1175.9 | 1132 | 1090.6 | – | – | – | –
[1], 348.15 K | 1219.9 | 1172.7 | 1128.8 | 1087.3 | – | – | – | –
[1], 353.15 K | 1216.8 | 1169.4 | 1125.6 | 1083.9 | – | – | – | –
[2], 293.15 K | – | – | – | – | 1.5135 | 1.51268 | 1.51322 | 1.51365
[2], 298.15 K | – | – | – | – | 1.51217 | 1.51131 | 1.51166 | 1.5121
[2], 303.15 K | – | – | – | – | 1.51084 | 1.50995 | 1.5102 | 1.51054
[2], 308.15 K | – | – | – | – | 1.5095 | 1.50858 | 1.50871 | 1.50894
[2], 313.15 K | – | – | – | – | 1.50816 | 1.50716 | 1.50723 | 1.50736
[2], 318.15 K | – | – | – | – | 1.5068 | 1.50578 | 1.50574 | 1.50576
[2], 323.15 K | – | – | – | – | 1.50543 | 1.50436 | 1.50428 | 1.5042
[2], 328.15 K | – | – | – | – | 1.50403 | 1.50296 | 1.50286 | 1.50267
[2], 333.15 K | – | – | – | – | 1.5027 | 1.50159 | 1.50142 | 1.50113
[2], 338.15 K | – | – | – | – | 1.50136 | 1.50019 | 1.49996 | 1.49959
[2], 343.15 K | – | – | – | – | 1.49997 | 1.49878 | 1.49854 | 1.4981
[2], 348.15 K | – | – | – | – | 1.4986 | 1.49742 | 1.49709 | 1.49657
[2], 353.15 K | – | – | – | – | 1.49726 | 1.49603 | 1.49563 | 1.49505
